Reference: article PMC11012124, “Synthesis of Novel Triazine-Based Chalcones and 8,9-dihydro-7H-pyrimido[4,5-b][1,4]diazepines as Potential Leads in the Search of Anticancer, Antibacterial and Antifungal Agents” (International Journal of Molecular Sciences, 2024)

Experiments:
60 cancer cell lines = test: NCI-60 one-dose screen (10 μM); type: cell-based; details: Homo sapiens; one dose of 10 μM, mean over 60 cancer cell lines; read-out: Mean Growth Percent (MGP)
From the text: Additionally, the mean of the growth percentages (MGP) of each compound against all the 60 cancer cell lines is also reported, which is used as one of the selection criteria to continue with tests at five concentration doses.

MOLT-4 = test: cells; details: Homo sapiens, MOLT-4, 48 h; for CC50: read-out: LC50
RPMI-8226 = test: cells; details: Homo sapiens, RPMI-8226, 48 h; for CC50: read-out: LC50
A549/ATCC = test: cells; details: Homo sapiens, A549, 48 h; for CC50: read-out: LC50
EKVX = test: cells; details: Homo sapiens, 48 h; for CC50: read-out: LC50
HOP-62 = test: cells; details: Homo sapiens, HOP-62, 48 h; for CC50: read-out: LC50
HOP-92 = test: cells; details: Homo sapiens, HOP-92, 48 h; for CC50: read-out: LC50
NCI-H226 = test: cells; details: Homo sapiens, NCI-H226, 48 h; for CC50: read-out: LC50
NCI-H23 = test: cells; details: Homo sapiens, NCI-H23, 48 h; for CC50: read-out: LC50
NCI-H322M = test: cells; details: Homo sapiens, 48 h; for CC50: read-out: LC50
COLO 205 = test: cells; details: Homo sapiens, COLO 205, 48 h; for CC50: read-out: LC50
HCC-2998 = test: cells; details: Homo sapiens, HCC 2998, 48 h; for CC50: read-out: LC50
HCT-116 = test: cells; details: Homo sapiens, HCT-116, 48 h; for CC50: read-out: LC50
HCT-15 = test: cells; details: Homo sapiens, HCT-15, 48 h; for CC50: read-out: LC50
HT29 = test: cells; details: Homo sapiens, HT-29, 48 h; for CC50: read-out: LC50
SF-268 = test: cells; details: Homo sapiens, SF-268, 48 h; for CC50: read-out: LC50
SF-295 = test: cells; details: Homo sapiens, SF-295, 48 h; for CC50: read-out: LC50
SF-539 = test: cells; details: Homo sapiens, SF-539, 48 h; for CC50: read-out: LC50, SF-539, 48 h
SNB-19 = test: cells; details: Homo sapiens, SNB-19, 48 h; for CC50: read-out: LC50
SNB-75 = test: cells; details: Homo sapiens, SNB-75, 48 h; for CC50: read-out: LC50
U251 = test: cells; details: Homo sapiens, U-251, 48 h; for GI50: U251, 48 h; for CC50: read-out: LC50
LOX IMVI = test: cells; details: Homo sapiens, 48 h; for CC50: read-out: LC50, LOX IMVI, 48 h
M14 = test: cells; details: Homo sapiens, M14, 48 h; for CC50: read-out: LC50
SK-MEL-5 = test: cells; details: Homo sapiens, SK-MEL-5, 48 h; for CC50: read-out: LC50
UACC-257 = test: cells; details: Homo sapiens, UACC-257, 48 h; for CC50: read-out: LC50
UACC-62 = test: cells; details: Homo sapiens, UACC-62, 48 h; for CC50: read-out: LC50
OVCAR-3 = test: cells; details: Homo sapiens, OVCAR-3, 48 h; for CC50: read-out: LC50
786-0 = test: cells; details: Homo sapiens, 786-0, 48 h; for CC50: read-out: LC50
A498 = test: cells; details: Homo sapiens, A498, 48 h; for CC50: read-out: LC50
ACHN = test: cells; details: Homo sapiens, 48 h; for CC50: read-out: LC50
RXF 393 = test: cells; details: Homo sapiens, RXF 393, 48 h; for CC50: read-out: LC50
UO-31 = test: cells; details: Homo sapiens, UO-31, 48 h; for CC50: read-out: LC50
PC-3 = test: cells; details: Homo sapiens, PC-3, 48 h; for CC50: read-out: LC50
MDA-MB-231/ATCC = test: cells; details: Homo sapiens, MDA-MB-231, 48 h; for CC50: read-out: LC50
HS 578T = test: cells; details: Homo sapiens, 48 h; for CC50: read-out: LC50
BT-549 = test: cells; details: Homo sapiens, BT-549, 48 h; for CC50: read-out: LC50
MDA-MB-468 = test: cells; details: Homo sapiens, MDA-MB-468, 48 h; for CC50: read-out: LC50

CN(C)c1nc(NCCNS(=O)(=O)c2ccc(C(=O)/C=C/c3ccccc3)cc2)nc(N2CCOCC2)n1 [23a]
activity at 10 µM (60 cancer cell lines): 61.9% | GI50 (MOLT-4): 4.27 µM | CC50 (MOLT-4): > 100 µM | GI50 (RPMI-8226): 3.25 µM | CC50 (RPMI-8226): > 100 µM | GI50 (A549/ATCC): 13.6 µM | CC50 (A549/ATCC): 59.1 µM | GI50 (EKVX): 14.7 µM | CC50 (EKVX): 63.8 µM | GI50 (HOP-62): 16.4 µM | CC50 (HOP-62): 62.7 µM | GI50 (HOP-92): 12.2 µM | CC50 (HOP-92): 58 µM | GI50 (NCI-H226): 13.5 µM | CC50 (NCI-H226): 74.2 µM | GI50 (NCI-H23): 16 µM | CC50 (NCI-H23): 58 µM | GI50 (NCI-H322M): 14.8 µM | CC50 (NCI-H322M): 56.5 µM | GI50 (COLO 205): 20.2 µM | CC50 (COLO 205): 80.7 µM | GI50 (HCC-2998): 16.7 µM | CC50 (HCC-2998): 57.7 µM | GI50 (HCT-116): 1.82 µM | CC50 (HCT-116): 7.1 µM | GI50 (HCT-15): 5.21 µM | CC50 (HCT-15): 61.7 µM | GI50 (HT29): 3.8 µM | CC50 (HT29): 43.9 µM | GI50 (SF-268): 13.7 µM | CC50 (SF-268): 70.1 µM | GI50 (SF-295): 15.6 µM | CC50 (SF-295): 59.5 µM | GI50 (SF-539): 11.1 µM | CC50 (SF-539): 53.2 µM | GI50 (SNB-19): 14.8 µM | CC50 (SNB-19): 57.3 µM | GI50 (SNB-75): 5.49 µM | CC50 (SNB-75): 44.6 µM | GI50 (U251): 11.7 µM | CC50 (U251): 57.2 µM | GI50 (LOX IMVI): 1.97 µM | CC50 (LOX IMVI): 8.68 µM | GI50 (M14): 14.6 µM | CC50 (M14): 68.5 µM | GI50 (SK-MEL-5): 15.9 µM | CC50 (SK-MEL-5): 54.3 µM | GI50 (UACC-257): 17.9 µM | CC50 (UACC-257): 58.3 µM | GI50 (UACC-62): 12 µM | CC50 (UACC-62): 52.3 µM | GI50 (OVCAR-3): 15.3 µM | CC50 (OVCAR-3): 53.4 µM | GI50 (786-0): 14.8 µM | CC50 (786-0): 57.1 µM | GI50 (A498): 14.6 µM | CC50 (A498): 52.9 µM | GI50 (ACHN): 18.2 µM | CC50 (ACHN): 72.2 µM | GI50 (RXF 393): 7.87 µM | CC50 (RXF 393): 55.8 µM | GI50 (UO-31): 11.2 µM | CC50 (UO-31): 55.7 µM | GI50 (PC-3): 8.63 µM | CC50 (PC-3): 58.9 µM | GI50 (MDA-MB-231/ATCC): 13.9 µM | CC50 (MDA-MB-231/ATCC): 54.7 µM | GI50 (HS 578T): 17.1 µM | CC50 (HS 578T): > 100 µM | GI50 (BT-549): 11.2 µM | CC50 (BT-549): 50 µM | GI50 (MDA-MB-468): 4.17 µM | CC50 (MDA-MB-468): 49.9 µM

CN(C)c1nc(NCCNS(=O)(=O)c2ccc(C3=Nc4c(N)nc(N)nc4NC(c4ccccc4)C3)cc2)nc(Nc2ccc(F)cc2)n1 (stereo not shown) [31a]
activity at 10 µM (60 cancer cell lines): 40.4% | GI50 (MOLT-4): 3.11 µM | CC50 (MOLT-4): > 100 µM | GI50 (RPMI-8226): 3.32 µM | CC50 (RPMI-8226): > 100 µM | GI50 (A549/ATCC): > 100 µM | CC50 (A549/ATCC): > 100 µM | GI50 (EKVX): 6.65 µM | CC50 (EKVX): > 100 µM | GI50 (HOP-62): 99.7 µM | CC50 (HOP-62): > 100 µM | GI50 (HOP-92): 2.18 µM | CC50 (HOP-92): 9.96 µM | GI50 (NCI-H226): > 100 µM | CC50 (NCI-H226): > 100 µM | GI50 (NCI-H23): > 100 µM | CC50 (NCI-H23): > 100 µM | GI50 (NCI-H322M): > 100 µM | CC50 (NCI-H322M): > 100 µM | GI50 (COLO 205): 16.4 µM | CC50 (COLO 205): > 100 µM | GI50 (HCC-2998): 11.7 µM | CC50 (HCC-2998): > 100 µM | GI50 (HCT-116): 7.37 µM | CC50 (HCT-116): > 100 µM | GI50 (HCT-15): > 100 µM | CC50 (HCT-15): > 100 µM | GI50 (HT29): 5.32 µM | CC50 (HT29): > 100 µM | GI50 (SF-268): 9.85 µM | CC50 (SF-268): > 100 µM | GI50 (SF-295): 9.49 µM | CC50 (SF-295): > 100 µM | GI50 (SF-539): 12 µM | CC50 (SF-539): 63.8 µM | GI50 (SNB-19): 21.8 µM | CC50 (SNB-19): > 100 µM | GI50 (SNB-75): 3.58 µM | CC50 (SNB-75): > 100 µM | GI50 (U251): 18.4 µM | CC50 (U251): > 100 µM | GI50 (LOX IMVI): 9.96 µM | CC50 (LOX IMVI): 25.7 µM | GI50 (M14): 24.4 µM | CC50 (M14): > 100 µM | GI50 (SK-MEL-5): 5.81 µM | CC50 (SK-MEL-5): 20.5 µM | GI50 (UACC-257): 87.2 µM | CC50 (UACC-257): > 100 µM | GI50 (UACC-62): 31.5 µM | CC50 (UACC-62): > 100 µM | GI50 (OVCAR-3): 69.3 µM | CC50 (OVCAR-3): > 100 µM | GI50 (786-0): 7.88 µM | CC50 (786-0): > 100 µM | CC50 (A498): > 100 µM | GI50 (ACHN): > 100 µM | CC50 (ACHN): > 100 µM | GI50 (RXF 393): 2.55 µM | CC50 (RXF 393): 8.95 µM | GI50 (UO-31): > 100 µM | CC50 (UO-31): > 100 µM | GI50 (PC-3): 3.84 µM | CC50 (PC-3): > 100 µM | GI50 (MDA-MB-231/ATCC): 6.16 µM | CC50 (MDA-MB-231/ATCC): 67.6 µM | GI50 (HS 578T): 6.43 µM | CC50 (HS 578T): > 100 µM | GI50 (BT-549): 8.82 µM | CC50 (BT-549): > 100 µM | GI50 (MDA-MB-468): 3.37 µM | CC50 (MDA-MB-468): 13.7 µM
